Assay results reported in ChEMBL document CHEMBL1126743, “New pyridobenzodiazepine derivatives as potential antipsychotics: synthesis and neurochemical study” (J Med Chem, 1993).
Activity calls are given as the source filed them. The calls are words filed in the database; no cut-off is given here.

Molecular target: D(1A) dopamine receptor (Rattus norvegicus, UniProt P18901)
Assay: biochemical
Details: not given

Chain of D(1A) dopamine receptor (P18901 whole entry): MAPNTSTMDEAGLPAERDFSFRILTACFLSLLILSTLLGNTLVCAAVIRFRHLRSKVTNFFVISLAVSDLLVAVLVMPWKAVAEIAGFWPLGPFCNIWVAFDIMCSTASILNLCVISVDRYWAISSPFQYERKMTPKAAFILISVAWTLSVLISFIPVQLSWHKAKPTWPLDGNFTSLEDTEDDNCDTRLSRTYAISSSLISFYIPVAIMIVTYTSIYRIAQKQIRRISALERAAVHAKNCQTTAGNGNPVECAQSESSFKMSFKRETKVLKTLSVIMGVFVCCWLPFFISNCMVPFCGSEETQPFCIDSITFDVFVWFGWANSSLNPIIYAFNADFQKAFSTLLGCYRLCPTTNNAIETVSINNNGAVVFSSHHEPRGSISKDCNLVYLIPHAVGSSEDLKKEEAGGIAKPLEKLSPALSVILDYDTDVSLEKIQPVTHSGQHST

Row | SMILES | Ki
1 | CN1CCN(C2=Nc3cccnc3Nc3ccc(Cl)cc32)CC1 | 2140 nM
2 | CN1CCN(C2=Nc3cc(F)ccc3Cc3ccccc32)CC1 [FLUPERLAPINE] | 141 nM
3 | CN1CCN(C2=Nc3ccccc3Nc3ncccc32)CC1 | 726 nM
4 | CN1CCN(C2=Nc3ccccc3Nc3ccc(Cl)cc32)CC1 [ISOCLOZAPINE] | 28 nM
5 | CN1CCN(C2=Nc3cccnc3N(C=O)c3ccccc32)CC1 | 47900 nM
6 | Cc1cnc2c(c1)N=C(N1CCN(C)CC1)c1ccccc1N2 | 1140 nM
7 | CN1CCN(C2=Nc3cccnc3Nc3cc(Cl)ccc32)CC1 | 214 nM
8 | CN1CCN(C2=Nc3cnccc3Nc3ccccc32)CC1 | 13500 nM
9 | CN1CCN(C2=Nc3ccccc3Nc3ccncc32)CC1 | 302 nM
10 | CN1CCN(C2=Nc3cccnc3Nc3ccc(F)cc32)CC1 | 677 nM
11 | CN1CCN(C2=Nc3cccnc3Nc3ccccc32)CC1 | 2400 nM
12 | CN1CCN(C2=Nc3ccccc3Sc3ccc(Cl)cc32)CC1 [CLOTHIAPINE] | 14 nM
13 | CN1CCN(C2=Nc3cccnc3N(C)c3ccccc32)CC1 | 6020 nM
14 | CN1CCN(C2=Nc3ccccc3N(C=O)c3ccncc32)CC1 | 3020 nM
15 | Cc1ccc2c(c1)C(N1CCN(C)CC1)=Nc1cccnc1N2 | 398 nM
16 | CN1CCN(C2=Nc3ccccc3N(C=O)c3ncccc32)CC1 | 30200 nM
17 | CN1CCN(C2=Nc3cc(Cl)ccc3Sc3ccccc32)CC1 [ISOCLOTHIAPINE] | 240 nM

Species on record: Rattus norvegicus
Assay: animal or person
Details: sc, read-out: Inhibition

Row | SMILES | inhibition in vivo at 0.6 mg/kg
18 | O=C(CCCN1CCC(O)(c2ccc(Cl)cc2)CC1)c1ccc(F)cc1 [HALOPERIDOL] | 100%

Test system: Rattus norvegicus
Assay: In vivo inhibition of apomorphine-mediated stereotypy in rats administered subcutaneously at 10 mg/kg expressed as percent inhibition
Format: functional
Details: sc, route subcutaneous

Row | SMILES | inhibition in vivo at 10 mg/kg
19 | CN1CCN(C2=Nc3cccnc3Nc3ccc(Cl)cc32)CC1 | 75%

Species on record: Rattus norvegicus
Assay: animal or person
Details: sc

Row | SMILES | ED50
20 | CN1CCN(C2=Nc3ccccc3Nc3ccc(Cl)cc32)CC1 [ISOCLOZAPINE] | 1.7 mg/kg
21 | CN1CCN(C2=Nc3ccccc3Sc3ccc(Cl)cc32)CC1 [CLOTHIAPINE] | 0.72 mg/kg

Molecular target: Serotonin 2 (5-HT2) receptor (Rattus norvegicus, UniProt P30994+P08909+P14842)
Assay: not given
Details: not given

Row | SMILES | Ki
22 | CN1CCN(C2=Nc3cccnc3Nc3ccc(Cl)cc32)CC1 | 6.2 nM
23 | CN1CCN(C2=Nc3cc(F)ccc3Cc3ccccc32)CC1 [FLUPERLAPINE] | 3.8 nM
24 | CN1CCN(C2=Nc3ccccc3Nc3ncccc32)CC1 | 103 nM
25 | CN1CCN(C2=Nc3cccnc3N(C=O)c3ccccc32)CC1 | 1870 nM
26 | Cc1cnc2c(c1)N=C(N1CCN(C)CC1)c1ccccc1N2 | 103 nM
27 | CN1CCN(C2=Nc3cccnc3Nc3cc(Cl)ccc32)CC1 | 48 nM
28 | CN1CCN(C2=Nc3cnccc3Nc3ccccc32)CC1 | 837 nM
29 | CN1CCN(C2=Nc3ccccc3Nc3ccncc32)CC1 | 29 nM
30 | CN1CCN(C2=Nc3cccnc3Nc3ccc(F)cc32)CC1 | 124 nM
31 | CN1CCN(C2=Nc3cccnc3Nc3ccccc32)CC1 | 124 nM
32 | CN1CCN(C2=Nc3ccccc3Sc3ccc(Cl)cc32)CC1 [CLOTHIAPINE] | 0.6 nM
33 | CN1CCN(C2=Nc3cccnc3N(C)c3ccccc32)CC1 | 2900 nM
34 | CN1CCN(C2=Nc3ccccc3N(C=O)c3ccncc32)CC1 | 2053 nM
35 | Cc1ccc2c(c1)C(N1CCN(C)CC1)=Nc1cccnc1N2 | 94 nM
36 | CN1CCN(C2=Nc3ccccc3N(C=O)c3ncccc32)CC1 | 7120 nM
37 | CN1CCN(C2=Nc3cc(Cl)ccc3Sc3ccccc32)CC1 [ISOCLOTHIAPINE] | 4.1 nM

Test system: Rattus norvegicus
Assay: In vivo inhibition of apomorphine-mediated stereotypy in rats administered subcutaneously at 20 mg/kg expressed as percent inhibition
Format: functional
Details: sc, route subcutaneous

Row | SMILES | inhibition in vivo at 20 mg/kg
38 | CN1CCN(C2=Nc3cccnc3Nc3ccc(F)cc32)CC1 | 55%

Test system: Rattus norvegicus
Assay: In vivo inhibition of apomorphine-mediated stereotypy in rats administered subcutaneously at 20 mg/kg expressed as ED50 (mg/kg)
Format: functional
Details: sc, route subcutaneous

Row | SMILES | ED50
39 | O=C(CCCN1CCC(O)(c2ccc(Cl)cc2)CC1)c1ccc(F)cc1 [HALOPERIDOL] | 0.14 mg/kg

Test system: Rattus norvegicus
Assay: In vivo inhibition of apomorphine-mediated stereotypy in rats administered subcutaneously at 20 mg/kg expressed as ED50 (mg/kg); Onactive
Format: functional, organism-based
Set-up: dose 20 mg/kg
Details: not given

Row | SMILES | ED50
40 | CN1CCN(C2=Nc3cc(Cl)ccc3Sc3ccccc32)CC1 [ISOCLOTHIAPINE] | inactive

Molecular target: Muscarinic acetylcholine receptor
Assay: not given
Details: not given

Row | SMILES | Ki
41 | CN1CCN(C2=Nc3cccnc3Nc3ccc(Cl)cc32)CC1 | 65 nM
42 | CN1CCN(C2=Nc3cc(F)ccc3Cc3ccccc32)CC1 [FLUPERLAPINE] | 25 nM
43 | CN1CCN(C2=Nc3ccccc3Nc3ncccc32)CC1 | 303 nM
44 | CN1CCN(C2=Nc3ccccc3Nc3ccc(Cl)cc32)CC1 [ISOCLOZAPINE] | 21 nM
45 | CN1CCN(C2=Nc3cccnc3N(C=O)c3ccccc32)CC1 | 311 nM
46 | Cc1cnc2c(c1)N=C(N1CCN(C)CC1)c1ccccc1N2 | 523 nM
47 | CN1CCN(C2=Nc3cccnc3Nc3cc(Cl)ccc32)CC1 | 366 nM
48 | CN1CCN(C2=Nc3cnccc3Nc3ccccc32)CC1 | 430 nM
49 | CN1CCN(C2=Nc3ccccc3Nc3ccncc32)CC1 | 3260 nM
50 | CN1CCN(C2=Nc3cccnc3Nc3ccc(F)cc32)CC1 | 415 nM
51 | CN1CCN(C2=Nc3cccnc3Nc3ccccc32)CC1 | 665 nM
52 | CN1CCN(C2=Nc3ccccc3Sc3ccc(Cl)cc32)CC1 [CLOTHIAPINE] | 136 nM
53 | CN1CCN(C2=Nc3cccnc3N(C)c3ccccc32)CC1 | 175 nM
54 | CN1CCN(C2=Nc3ccccc3N(C=O)c3ccncc32)CC1 | 3450 nM
55 | Cc1ccc2c(c1)C(N1CCN(C)CC1)=Nc1cccnc1N2 | 48 nM
56 | CN1CCN(C2=Nc3ccccc3N(C=O)c3ncccc32)CC1 | 3415 nM
57 | CN1CCN(C2=Nc3cc(Cl)ccc3Sc3ccccc32)CC1 [ISOCLOTHIAPINE] | 5.6 nM

Test system: Rattus norvegicus
Assay: In vivo inhibition of apomorphine-mediated stereotypy in rats administered subcutaneously at 20 mg/kg expressed as ED50 (mg/kg); Inactive
Format: functional, organism-based
Set-up: dose 20 mg/kg
Details: not given

Row | SMILES | ED50
58 | CN1CCN(C2=Nc3cc(Cl)ccc3Nc3ccccc32)CC1 [CLOZAPINE] | inactive

Species on record: Rattus norvegicus
Assay: animal or person
Details: sc, read-out: Inhibition
Remark: another data set of the same source

Row | SMILES | inhibition in vivo at 20 mg/kg
59 | CN1CCN(C2=Nc3ccccc3Nc3ncccc32)CC1 | 0%
60 | CN1CCN(C2=Nc3cccnc3N(C=O)c3ccccc32)CC1 | 0%
61 | CN1CCN(C2=Nc3cccnc3Nc3cc(Cl)ccc32)CC1 | 70%
62 | CN1CCN(C2=Nc3ccccc3Nc3ccncc32)CC1 | 45%
63 | CN1CCN(C2=Nc3cccnc3Nc3ccccc32)CC1 | 0%
64 | CN1CCN(C2=Nc3ccccc3Sc3ccc(Cl)cc32)CC1 [CLOTHIAPINE] | 100%
65 | CN1CCN(C2=Nc3cccnc3N(C)c3ccccc32)CC1 | 0%
66 | CN1CCN(C2=Nc3ccccc3N(C=O)c3ccncc32)CC1 | 0%
67 | CN1CCN(C2=Nc3cc(Cl)ccc3Nc3ccccc32)CC1 [CLOZAPINE] | 0%
68 | Cc1ccc2c(c1)C(N1CCN(C)CC1)=Nc1cccnc1N2 | 75%
69 | CN1CCN(C2=Nc3ccccc3N(C=O)c3ncccc32)CC1 | 0%
